In patent US10550111B2, “Pyrimidine urea compound containing isoxazolines and use thereof” (SHENYANG SINOCHEM AGROCHEMICALS R&D CO., LTD, priority 2014, dated 2020):

What was measured:
Type in all cases: in vivo
wheat = test: Crop safety study in greenhouse; conditions: 7.5-37.5 g a.i./hm^2; pre-emergence and post-emergence application
Text: (§1) Seeds of soybean, cotton, maize, wheat and rice were sown in nutrition soil in paper pot (9 cm diameter), covered with soil in 1 cm and grown in the greenhouse under good growth conditions (temperature, atmospheric humidity, water supply). The compounds of the present invention as emulsifiable concentrate, were applied in pre-emergence and post-emergence treatment by track sprayer (Engineer Research Ltd., pressure 1.95 kg/cm^2, volume 500 L/hm^2, track speed 1.48 km/h). Pre-emergence treatment was conducted after seeding 24 hours and post-emergence treatment was done when the respective weeds reached predetermined leaf stage (soybean and cotton at 2- to 4-leaf stage and maize, wheat and rice at 3-leaf stage), the state of growth of the respective crops were visually observed to determine the safety in accordance with the following evaluation standard.
(§2) Safety rating scale (%): 0 means no damage to crops; 100 means to kill crops completely.

rice = test: Crop safety study in greenhouse; conditions: 7.5-37.5 g a.i./hm^2; pre-emergence and post-emergence application
Text: as §1, §2

maize = test: Crop safety study in greenhouse; conditions: 7.5-37.5 g a.i./hm^2; pre-emergence and post-emergence application
Text: as §1, §2

[1] = system: Abutilon theophrasti Medic.; test: Bioassay of herbicidal activity in greenhouse (further screening)
Outline: (§3)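 Visual growth inhibition rating (0 no effect to 100 all weeds dead or not emerged) after track-sprayer application (500 L/hm²) of emulsifiable concentrate. Treatments either pre-emergence, 24 h after sowing, or post-emergence at 2–3-leaf grass and 2–4-leaf broad-leaf stage, greenhouse-grown.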

[2] = system: Setaria glauca (L.) Beauv.; test: as above
Outline: as §3

Zinnia elegans Jacq. = test: as above
Outline: as §3

[3] = system: Echinochloa crus-galli (L.) Beauv.; test: as above
Outline: as §3

[4] = system: broad-leaf weeds and grass weeds; test: General screening of herbicidal activity in greenhouse; conditions: 1000 g a.i./hm^2
Outline: as §3

## Cn1c(C(F)(F)F)cc(=O)n(-c2cc(C3=NOC(C)(COC(=O)C4CC4)C3)c(Cl)cc2F)c1=O (centres unmarked) [Compound 45]
wheat
  Crop safety, wheat: good safety
rice
  Crop safety, rice: good safety
maize
  Crop safety, maize: good safety
[1]; dose 7.5 g a.i./hm^2
  Growth inhibition rate, Post-emergence treatment, Abutilon theophrasti Medic.: 98%
  Growth inhibition rate, Pre-emergence treatment, Abutilon theophrasti Medic.: 98%
[1]; dose 15 g a.i./hm^2
  Growth inhibition rate, Post-emergence treatment, Abutilon theophrasti Medic.: 100%
  Growth inhibition rate, Pre-emergence treatment, Abutilon theophrasti Medic.: 100%
[1]; dose 37.5 g a.i./hm^2
  Growth inhibition rate, Post-emergence treatment, Abutilon theophrasti Medic.: 100%
  Growth inhibition rate, Pre-emergence treatment, Abutilon theophrasti Medic.: 95%
[1]; dose 150 g a.i./hm^2
  Growth inhibition rate, Post-emergence treatment, Abutilon theophrasti Medic.: 100%
  Growth inhibition rate, Pre-emergence treatment, Abutilon theophrasti Medic.: 100%
[1]; dose 600 g a.i./hm^2
  Growth inhibition rate, Post-emergence treatment, Abutilon theophrasti Medic.: 100%
  Growth inhibition rate, Pre-emergence treatment, Abutilon theophrasti Medic.: 100%
[2]; dose 7.5 g a.i./hm^2
  Growth inhibition rate, Post-emergence treatment, Setaria glauca (L.) Beauv.: 30%
  Growth inhibition rate, Pre-emergence treatment, Setaria glauca (L.) Beauv.: 70%
[2]; dose 15 g a.i./hm^2
  Growth inhibition rate, Post-emergence treatment, Setaria glauca (L.) Beauv.: 45%
  Growth inhibition rate, Pre-emergence treatment, Setaria glauca (L.) Beauv.: 80%
[2]; dose 37.5 g a.i./hm^2
  Growth inhibition rate, Post-emergence treatment, Setaria glauca (L.) Beauv.: 50%
  Growth inhibition rate, Pre-emergence treatment, Setaria glauca (L.) Beauv.: 95%
[2]; dose 150 g a.i./hm^2
  Growth inhibition rate, Post-emergence treatment, Setaria glauca (L.) Beauv.: 85%
  Growth inhibition rate, Pre-emergence treatment, Setaria glauca (L.) Beauv.: 90%
[2]; dose 600 g a.i./hm^2
  Growth inhibition rate, Post-emergence treatment, Setaria glauca (L.) Beauv.: 98%
  Growth inhibition rate, Pre-emergence treatment, Setaria glauca (L.) Beauv.: 100%
Zinnia elegans Jacq.; dose 7.5 g a.i./hm^2
  Growth inhibition rate, Post-emergence treatment, Zinnia elegans Jacq.: 95%
  Growth inhibition rate, Pre-emergence treatment, Zinnia elegans Jacq.: 20%
Zinnia elegans Jacq.; dose 15 g a.i./hm^2
  Growth inhibition rate, Post-emergence treatment, Zinnia elegans Jacq.: 100%
  Growth inhibition rate, Pre-emergence treatment, Zinnia elegans Jacq.: 20%
Zinnia elegans Jacq.; dose 37.5 g a.i./hm^2
  Growth inhibition rate, Post-emergence treatment, Zinnia elegans Jacq.: 100%
  Growth inhibition rate, Pre-emergence treatment, Zinnia elegans Jacq.: 90%
Zinnia elegans Jacq.; dose 150 g a.i./hm^2
  Growth inhibition rate, Post-emergence treatment, Zinnia elegans Jacq.: 100%
  Growth inhibition rate, Pre-emergence treatment, Zinnia elegans Jacq.: 95%
Zinnia elegans Jacq.; dose 600 g a.i./hm^2
  Growth inhibition rate, Post-emergence treatment, Zinnia elegans Jacq.: 100%
  Growth inhibition rate, Pre-emergence treatment, Zinnia elegans Jacq.: 100%
[3]; dose 7.5 g a.i./hm^2
  Growth inhibition rate, Post-emergence treatment, Echinochloa crus-galli (L.) Beauv.: 15%
  Growth inhibition rate, Pre-emergence treatment, Echinochloa crus-galli (L.) Beauv.: 5%
[3]; dose 15 g a.i./hm^2
  Growth inhibition rate, Post-emergence treatment, Echinochloa crus-galli (L.) Beauv.: 15%
  Growth inhibition rate, Pre-emergence treatment, Echinochloa crus-galli (L.) Beauv.: 10%
[3]; dose 37.5 g a.i./hm^2
  Growth inhibition rate, Post-emergence treatment, Echinochloa crus-galli (L.) Beauv.: 25%
  Growth inhibition rate, Pre-emergence treatment, Echinochloa crus-galli (L.) Beauv.: 20%
[3]; dose 150 g a.i./hm^2
  Growth inhibition rate, Post-emergence treatment, Echinochloa crus-galli (L.) Beauv.: 80%
  Growth inhibition rate, Pre-emergence treatment, Echinochloa crus-galli (L.) Beauv.: 85%
[3]; dose 600 g a.i./hm^2
  Growth inhibition rate, Post-emergence treatment, Echinochloa crus-galli (L.) Beauv.: 100%
  Growth inhibition rate, Pre-emergence treatment, Echinochloa crus-galli (L.) Beauv.: 100%
[4]
  pre-emergence and post-emergence herbicidal activity against broad-leaf weeds and grass weeds: good
